How the values were obtained:
XIAP = target: T1, XIAP (Homo sapiens, UniProt P98170); assay: Fluorescence polarization-based competition assay, XIAP; assay type: binding; conditions: FP assay, ki derived from IC50
T1 construct: fused on or other part: GST tag at the N-terminus (pGEX4T vectors)
Method in brief: (§1)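 Competition of FITC-labelled probe (2 nM) binding to the BIR domain, protein set at 80% of maximal FP signal; 10-point compound dilutions in 50 mM HEPES pH 7.5, γ-globulin, 2 mM DTT, 1% DMSO, 1 h at room temperature in the dark. IC50 from sigmoidal fit; Ki derived from IC50.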

cIAP2 = target: T2, cIAP2 (Homo sapiens, UniProt Q13489); assay: Fluorescence polarization-based competition assay, cIAP2; assay type: binding; conditions: FP assay, ki derived from IC50
T2 construct: GST (N); made in house; host or cells: E. coli DH5α
T2 sequence (Q13489 236-349): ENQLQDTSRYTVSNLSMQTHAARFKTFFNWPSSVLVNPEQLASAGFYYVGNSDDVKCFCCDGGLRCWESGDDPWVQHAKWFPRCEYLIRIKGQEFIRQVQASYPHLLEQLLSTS
Method: Binding of compounds of Formula 1 to target BIR domains was measured using a fluorescence-polarization (FP) assay. Fluorescence-polarization was evaluated using a GENios microplate reader (TECAN) Pro instrument with the excitation filter set at 485 nm and the emission filter set at 535 nm. The final amount of protein used in the assay corresponds to the amount of protein necessary to obtain 80% of the maximum FP value in a P1 or P2 fluorescent (FITC) probe saturation experiment. The compounds potency (IC50) and selectivity, was assessed in the presence of the amount of target protein established, fluorescent probe, and a 10 point serial dilution in assay buffer (50 mM Hepes, pH 7.5, 250 mcg/mL γ-globulin, 2 mM DTT, 1% DMSO) of the selected compounds.
Assays were carried out in duplicate using untreated black 96-well plates (Corning #3915) and a total volume of 100 microliters, containing 25 microliters of fluorescent probe at a final concentration of 2 nM in assay buffer, 25 microliters of diluted compound, 25 microliters of BIR protein into assay buffer and 25 microliters of assay buffer. Buffer only (blank) or probe only in buffer (G-factor) were used as controls for calibration. The plate was incubated at room temperature in the dark for one hour and FP values in millipolarization units (mP) were recorded using Genios Pro FP reader.
The measured FP values (mP) were then plotted against compound concentration, and IC50 values were calculated based on a sigmoidal dose-response (variable-slope) curve fit using GraphPad Prism version 4.02 for Windows, GraphPad Software, San Diego Calif. USA and/or CambridgeSoft BioAssay Enterprise Version 10.1. The IC50 value is the concentration of test compound at which 50% of the tracer was displaced. ki values were derived from the calculated IC50 values as described above and according to the equation described in Nikolovska-Coleska, Z. (2004) Anal Biochem 332, 261-273. The results are presented in Table 2, wherein A=less than 25 nM; B=less than 250 nM; C=less than 1000 nM; and D=greater than 1000 nM.

MDA-MB-231 (CD) cells = assay: MDA-MB-231 compound + mapatubamab xenograft study; assay type: in vivo, nude mice; conditions: 30 and 60 mg/kg, PO, QD in combination with mapatubamab (10 mg/kg, IV)
Method: Female, nude mice received 5×10^6 MDA-MB-231 (CD) cells subcutaneously in the right flank (0.1 mL volume) on day 0 of the experiment. When the average tumor size reached ˜100 mm^3, groups were formed using a balanced design based on tumor size, and dosing was initiated. Test compound 10 or 7 (see Table 1) (or corresponding vehicle alone) was given daily, and mapatubamab (or corresponding vehicle alone) was given twice weekly. Tumor size and body weight were measured twice weekly throughout the study.

c-IAP1 = target: T3, c-IAP1 (Homo sapiens, UniProt Q13490); assay: Fluorescence polarization-based competition assay, c-IAP1; assay type: binding; conditions: FP assay, ki derived from IC50
T3 construct: GST (N); made in house; host or cells: E. coli DH5α
T3 sequence (Q13490 251-363): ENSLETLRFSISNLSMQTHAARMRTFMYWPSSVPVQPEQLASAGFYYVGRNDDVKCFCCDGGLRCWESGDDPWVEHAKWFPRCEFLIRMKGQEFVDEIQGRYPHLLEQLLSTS
Method in brief: as §1

[1] = system: Colorectal carcinoma HCT116 cells; assay: Cell death assay (MTT) in combination with HGS ETR1; assay type: cell-based; conditions: with HGS ETR1 30 ng/ml, 72 hours, read-out: HCT116+ mapatubimap EC50
Method in brief: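 HCT116 cells (2000/well, McCoy's 5a, 10% FBS) were treated 24 h after plating with compound plus the agonistic TRAIL receptor antibody mapatumumab (ETR1, 30 ng/ml) for 72 hours. Viability was read by MTT. EC50 was the concentration giving 50% survival relative to untreated controls.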

T1 sequence (P98170 246-497 limits assumed): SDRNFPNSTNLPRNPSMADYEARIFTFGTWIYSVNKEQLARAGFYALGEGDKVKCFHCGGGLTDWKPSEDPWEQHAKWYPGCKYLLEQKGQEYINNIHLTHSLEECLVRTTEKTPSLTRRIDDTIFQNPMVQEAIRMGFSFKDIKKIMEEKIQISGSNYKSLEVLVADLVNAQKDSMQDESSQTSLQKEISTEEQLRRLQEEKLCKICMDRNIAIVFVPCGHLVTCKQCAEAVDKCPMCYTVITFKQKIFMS

Row | Ki (XIAP) | Ki (cIAP2) | Ki (c-IAP1) | SMILES | reduction of tumor volume as compared to control (MDA-MB-231 (CD) cells) | EC50 [1]
1 | < 250 nM | < 25 nM | < 25 nM | CN[C@@H](C)C(=O)N[C@H](C(=O)N1CCC[C@H]1CN(CCc1ccc(F)cc1)C(=O)c1cn(C)nn1)C1CCCCC1 [Compound 110] | – | < 50 nM
2 | < 250 nM | < 25 nM | < 25 nM | CN[C@@H](C)C(=O)N[C@H](C(=O)N1CCC[C@H]1CN(CCc1ccc(F)cc1)C(=O)c1ncc(-c2ccccc2)[nH]1)C(C)(C)C [Compound 109] | – | < 50 nM
3 | < 250 nM | < 25 nM | < 25 nM | CN[C@@H](C)C(=O)N[C@H](C(=O)N1C[C@@H](NC(=O)c2ccccc2)C[C@H]1CN(CCc1ccc(F)cc1)C(=O)c1cn(C)cn1)C(C)(C)C [Compound 86] | – | < 50 nM
4 | < 250 nM | < 25 nM | < 25 nM | CN[C@@H](C)C(=O)N[C@H](C(=O)N1C[C@@H](Oc2ccncc2)C[C@H]1CN(CCc1ccc(F)cc1)C(=O)c1cn2ccccc2n1)C(C)(C)C [Compound 106] | – | < 50 nM
5 | < 1000 nM | < 25 nM | < 25 nM | CN[C@@H](C)C(=O)N[C@H](C(=O)N1CCC[C@H]1CN(CCc1ccc(F)cc1)C(=O)c1nnc(-c2ccccc2)o1)C(C)(C)C [Compound 117] | – | < 250 nM
6 | < 25 nM | < 25 nM | < 25 nM | CN[C@@H](C)C(=O)N[C@H](C(=O)N1C[C@@H](Oc2ccc(F)cc2)C[C@H]1CN(CCc1ccc(F)cc1)C(=O)c1cn2c(n1)CCC2)[C@@H](C)OC [Compound 114] | – | < 50 nM
7 | < 250 nM | < 25 nM | < 25 nM | CN[C@@H](C)C(=O)N[C@H](C(=O)N1C[C@@H](NC(=O)c2ccccc2)C[C@H]1CN(CCc1ccc(F)cc1)C(=O)c1cn(-c2ccc(F)cc2)cn1)C(C)(C)C [Compound 87] | – | < 250 nM
8 | < 250 nM | < 25 nM | < 25 nM | CN[C@@H](C)C(=O)N[C@H](C(=O)N1CCC[C@H]1CN(CCc1ccc(F)cc1)C(=O)c1cn(C2CCCC2)cn1)C(C)(C)C [Compound 91] | – | < 50 nM
9 | < 250 nM | < 25 nM | < 25 nM | CN[C@@H](C)C(=O)N[C@H](C(=O)N1C[C@@H](Oc2ccc(F)cc2)C[C@H]1CN(CCc1ccc(F)cc1)C(=O)c1cn(-c2ccc(F)cc2)cn1)[C@@H](C)OC [Compound 108] | – | < 250 nM
10 | < 250 nM | < 25 nM | < 25 nM | CN[C@@H](C)C(=O)N[C@H](C(=O)N1CCC[C@H]1CN(CCc1ccc(F)cc1)C(=O)c1cn(-c2ccc(F)cc2)cn1)C1CCCCC1 [Compound 104] | – | < 50 nM
11 | < 250 nM | < 25 nM | < 25 nM | CN[C@@H](C)C(=O)N[C@H](C(=O)N1CCC[C@H]1CN(CCc1ccc(F)cc1)C(=O)c1cc(C)on1)C(C)(C)C [Compound 98] | – | < 250 nM
12 | < 25 nM | < 25 nM | < 25 nM | CN[C@@H](C)C(=O)N[C@H](C(=O)N1C[C@@H](Oc2ccc(F)cc2)C[C@H]1CN(CCc1ccc(F)cc1)C(=O)c1cn2ccccc2n1)C(C)(C)C [Compound 84] | – | < 50 nM

Further lines, the compound ahead of its results:

Row | SMILES | Ki (XIAP) | Ki (cIAP2) | Ki (c-IAP1) | reduction of tumor volume as compared to control (MDA-MB-231 (CD) cells) | EC50 [1]
13 | CN[C@@H](C)C(=O)N[C@H](C(=O)N1CCC[C@H]1CN(CCc1ccc(F)cc1)C(=O)c1cn2cccnc2n1)C(C)(C)C [Compound 10] | < 250 nM | < 25 nM | < 25 nM | 50% | < 50 nM
14 | CN[C@@H](C)C(=O)N[C@H](C(=O)N1CCC[C@H]1CN(CCc1ccccc1)C(=O)c1cn2ccccc2n1)C(C)(C)C [Compound 7] | < 250 nM | < 25 nM | < 25 nM | 50% | < 250 nM
15 | CN[C@@H](C)C(=O)N[C@H](C(=O)N1CCC[C@H]1CN(CCc1ccc(F)cc1)C(=O)c1cn(-c2ccccc2)cn1)C(C)(C)C [Compound 61] | < 250 nM | < 25 nM | < 25 nM | – | < 250 nM
16 | CN[C@@H](C)C(=O)N[C@H](C(=O)N1C[C@@H](Oc2ccc(F)cc2)C[C@H]1CN(CCc1ccc(F)cc1)C(=O)c1cn2c(n1)CCC2)C(C)(C)C [Compound 83] | < 25 nM | < 25 nM | < 25 nM | – | < 50 nM
17 | CN[C@@H](C)C(=O)N[C@H](C(=O)N1C[C@@H](Oc2ccc(F)cc2)C[C@H]1CN(CCc1ccc(F)cc1)C(=O)c1cn(C)cn1)C(C)(C)C [Compound 82] | < 25 nM | < 25 nM | < 25 nM | – | < 50 nM
18 | CN[C@@H](C)C(=O)N[C@H](C(=O)N1CCC[C@H]1CN(CCc1ccc(F)cc1)C(=O)c1cn2cc(F)cnc2n1)[C@@H](C)OC [Compound 74] | < 250 nM | < 25 nM | < 25 nM | – | < 50 nM
19 | CN[C@@H](C)C(=O)N[C@H](C(=O)N1CCC[C@H]1CN(CCc1ccc(F)cc1)C(=O)c1cn2ccccc2n1)C(C)(C)C [Compound 17] | < 250 nM | < 25 nM | < 25 nM | – | < 50 nM
20 | CN[C@@H](C)C(=O)N[C@H](C(=O)N1CCC[C@H]1CN(CCc1ccc(F)cc1)C(=O)c1cn(C)cn1)[C@@H](C)OC [Compound 73] | < 250 nM | < 25 nM | < 25 nM | – | < 250 nM
21 | CN[C@@H](C)C(=O)N[C@H](C(=O)N1C[C@@H](OCc2ccccc2)C[C@H]1CN(CCc1ccc(F)cc1)C(=O)c1cn2cccnc2n1)C(C)(C)C [Compound 47] | < 250 nM | < 25 nM | < 25 nM | – | < 250 nM
22 | CN[C@@H](C)C(=O)N[C@H](C(=O)N1C[C@@H](NC(C)=O)C[C@H]1CN(CCc1ccc(F)cc1)C(=O)c1cn2ccccc2n1)C(C)(C)C [Compound 70] | < 1000 nM | < 250 nM | < 25 nM | – | < 1000 nM
23 | CN[C@@H](C)C(=O)N[C@H](C(=O)N1C[C@@H](NC(C)=O)C[C@H]1CN(CCc1ccc(F)cc1)C(=O)c1cn2cccnc2n1)C(C)(C)C [Compound 55] | < 250 nM | < 25 nM | < 25 nM | – | > 1000 nM
24 | CN[C@@H](C)C(=O)N[C@H](C(=O)N1CCC[C@H]1CN(CCc1ccccc1)C(=O)c1cn2cc(F)ccc2n1)C(C)(C)C [Compound 32] | < 250 nM | < 25 nM | < 25 nM | – | < 250 nM
25 | CN[C@@H](C)C(=O)N[C@H](C(=O)N1C[C@@H](NC(=O)OCc2ccccc2)C[C@H]1CN(CCc1ccc(F)cc1)C(=O)c1cn2cccnc2n1)C(C)(C)C [Compound 44] | < 250 nM | < 25 nM | < 25 nM | – | < 250 nM
